pIC50: −log10 of the molar value.
Tested on: SUM149PT spheroids with HUVEC/MSC, viability
Assay: Anticancer human tumor SUM149PT cell line growth inhibition [GQUAD];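 further: spheroids exposed to drugs for seven days before readout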;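 on viability, T/C: percent viability relative to DMSO vehicle control taken as 100%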
Conditions: for pIC50: curve of first compound; for viability, T/C: stronger effect = lower value
Procedure, shortened: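 Tumor cells were grown as complex spheroids with HUVEC endothelial cells and mesenchymal stem cells as stroma. G-quadruplex stabilizers were combined with targeted agents over half-log dilutions from near the clinical Cmax, or from 10 microM.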

How did the pIC50 (second compound 0.0316 µM) turn out when Cc1[nH]c2ccccc2c1CCNCc1ccc(/C=C/C(=O)NO)cc1 + CN(C)c1ccc(Nc2c3ccc(NC(=O)CCN4CCCC4)cc3nc3cc(NC(=O)CCN4CCCC4)ccc23)cc1 was run?
The pIC50 was 6.60.

And the pIC50 (second compound 0.1 µM)?
The pIC50 was 6.63.

What about the pIC50 (second compound 0.316 µM) of the same compound?
Its pIC50 is 6.64.

What about the pIC50 (second compound 1 µM) of the same compound?
Its pIC50 is 6.69.

And the pIC50 (second compound 3.16 µM)?
Its pIC50 is 6.72.

And the pIC50 (second compound 10 µM)?
Its pIC50 is 6.88.

What about the viability, T/C (second compound 0.0316 µM, first compound 0.000999 µM) of the same compound?
The viability, T/C was 103%.

What about the viability, T/C (second compound 0.0316 µM, first compound 0.00316 µM) of the same compound?
The viability, T/C was 98%.

And the viability, T/C (second compound 0.0316 µM, first compound 0.00999 µM)?
The viability, T/C was 96.5%.

What about the viability, T/C (second compound 0.0316 µM, first compound 0.0316 µM) of the same compound?
Its viability, T/C is 102%.

And the viability, T/C (second compound 0.0316 µM, first compound 0.0999 µM)?
The viability, T/C was 85.4%.

And the viability, T/C (second compound 0.0316 µM, first compound 0.316 µM)?
The viability, T/C was 41.5%.

And the viability, T/C (second compound 0.1 µM, first compound 0.000999 µM)?
The viability, T/C was 97.8%.

What about the viability, T/C (second compound 0.1 µM, first compound 0.00316 µM) of the same compound?
Its viability, T/C is 97.1%.

What about the viability, T/C (second compound 0.1 µM, first compound 0.00999 µM) of the same compound?
The viability, T/C was 96.6%.

And the viability, T/C (second compound 0.1 µM, first compound 0.0316 µM)?
Its viability, T/C is 90.7%.

What about the viability, T/C (second compound 0.1 µM, first compound 0.0999 µM) of the same compound?
Its viability, T/C is 87.6%.

And the viability, T/C (second compound 0.1 µM, first compound 0.316 µM)?
Its viability, T/C is 37.4%.

What about the viability, T/C (second compound 0.316 µM, first compound 0.000999 µM) of the same compound?
The viability, T/C was 91.2%.

And the viability, T/C (second compound 0.316 µM, first compound 0.00316 µM)?
Its viability, T/C is 96.8%.

And the viability, T/C (second compound 0.316 µM, first compound 0.00999 µM)?
Its viability, T/C is 88.8%.

And the viability, T/C (second compound 0.316 µM, first compound 0.0316 µM)?
The viability, T/C was 91.1%.

What about the viability, T/C (second compound 0.316 µM, first compound 0.0999 µM) of the same compound?
The viability, T/C was 89.8%.

And the viability, T/C (second compound 0.316 µM, first compound 0.316 µM)?
Its viability, T/C is 35.1%.

And the viability, T/C (second compound 1 µM, first compound 0.000999 µM)?
Its viability, T/C is 90.9%.

And the viability, T/C (second compound 1 µM, first compound 0.00316 µM)?
Its viability, T/C is 88.5%.

And the viability, T/C (second compound 1 µM, first compound 0.00999 µM)?
Its viability, T/C is 84.3%.

What about the viability, T/C (second compound 1 µM, first compound 0.0316 µM) of the same compound?
The viability, T/C was 85.5%.

What about the viability, T/C (second compound 1 µM, first compound 0.0999 µM) of the same compound?
Its viability, T/C is 81.7%.

What about the viability, T/C (second compound 1 µM, first compound 0.316 µM) of the same compound?
The viability, T/C was 29.6%.

What about the viability, T/C (second compound 3.16 µM, first compound 0.000999 µM) of the same compound?
The viability, T/C was 81.6%.

And the viability, T/C (second compound 3.16 µM, first compound 0.00316 µM)?
Its viability, T/C is 88.5%.

What about the viability, T/C (second compound 3.16 µM, first compound 0.00999 µM) of the same compound?
Its viability, T/C is 86.5%.

And the viability, T/C (second compound 3.16 µM, first compound 0.0316 µM)?
Its viability, T/C is 84.5%.

And the viability, T/C (second compound 3.16 µM, first compound 0.0999 µM)?
The viability, T/C was 72.5%.

And the viability, T/C (second compound 3.16 µM, first compound 0.316 µM)?
The viability, T/C was 32.1%.

And the viability, T/C (second compound 10 µM, first compound 0.000999 µM)?
Its viability, T/C is 90%.

What about the viability, T/C (second compound 10 µM, first compound 0.00316 µM) of the same compound?
Its viability, T/C is 84.7%.

And the viability, T/C (second compound 10 µM, first compound 0.00999 µM)?
Its viability, T/C is 82.6%.

What about the viability, T/C (second compound 10 µM, first compound 0.0316 µM) of the same compound?
The viability, T/C was 84.3%.

And the viability, T/C (second compound 10 µM, first compound 0.0999 µM)?
Its viability, T/C is 58%.

And the viability, T/C (second compound 10 µM, first compound 0.316 µM)?
Its viability, T/C is 25.9%.
